Assay results from publication PMC9234961 (Journal of Medicinal Chemistry, 2022).
Like-named read-outs stand apart in the source and are kept apart here.

What was measured:
kinases (468) [1] = target: kinases (468) (Homo sapiens, UniProt Q8IVW4); settings: CDKL3; 1000 nM
kinases (468) [2] = target: kinases (468) (Homo sapiens, UniProt P42336, I800L); settings: PIK3CA(I800L); 1000 nM
kinases (468) [3] = target: kinases (468) (Homo sapiens, UniProt Q9Y243); settings: AKT3; 1000 nM
kinases (468) [4] = target: kinases (468) (Homo sapiens, UniProt P54753); settings: EPHB3; 1000 nM
kinases (468) [5] = target: kinases (468) (Plasmodium falciparum, UniProt P61075); settings: PFPK5(P.falciparum) (MAL13P1.279); 1000 nM
kinases (468) [6] = target: kinases (468) (Homo sapiens, UniProt P42685); settings: FRK; 1000 nM
kinases (468) [7] = target: kinases (468) (Homo sapiens, UniProt Q9H1R3); settings: MYLK2; 1000 nM
kinases (468) [8] = target: kinases (468) (Homo sapiens, UniProt Q13554); settings: CAMK2B; 1000 nM
kinases (468) [9] = target: kinases (468) (Homo sapiens, UniProt P08069); settings: IGF1R; 1000 nM
kinases (468) [10] = target: kinases (468) (Homo sapiens, UniProt O96017); settings: CHEK2; 1000 nM
kinases (468) [11] = target: kinases (468) (Homo sapiens, UniProt O94768); settings: DRAK2 (STK17B); 1000 nM
kinases (468) [12] = target: kinases (468) (Homo sapiens, UniProt Q16816); settings: PHKG1; 1000 nM
kinases (468) [13] = target: kinases (468) (Homo sapiens, UniProt Q8IW41); settings: MAPKAPK5; 1000 nM
kinases (468) [14] = target: kinases (468) (Homo sapiens, UniProt Q13464); settings: kinase ROCK1 (Entrez ROCK1); compound concentration 1000 nM
kinases (468) [15] = target: kinases (468) (Homo sapiens, UniProt Q9HCP0); settings: CSNK1G1; 1000 nM
kinases (468) [16] = target: kinases (468) (Homo sapiens, UniProt P09769); settings: FGR; 1000 nM
kinases (468) [17] = target: kinases (468) (Homo sapiens, UniProt Q9Y2K2); settings: QSK (KIAA0999); 1000 nM
kinases (468) [18] = target: kinases (468) (Homo sapiens, UniProt Q14680); settings: MELK; 1000 nM
kinases (468) [19] = target: kinases (468) (Homo sapiens, UniProt Q9H2K8); settings: kinase TAOK3 (Entrez TAOK3); compound concentration 1000 nM
kinases (468) [20] = target: kinases (468) (Homo sapiens, UniProt P11802); settings: 1000 nM
kinases (468) [21] = target: kinases (468) (Homo sapiens, UniProt P08581, Y1235D); settings: MET(Y1235D); 1000 nM
kinases (468) [22] = target: kinases (468) (Homo sapiens, UniProt Q13555); settings: CAMK2G; 1000 nM
kinases (468) [23] = target: kinases (468) (Homo sapiens, UniProt Q7L7X3); settings: kinase TAOK1 (Entrez TAOK1); compound concentration 1000 nM
kinases (468) [24] = target: kinases (468) (Homo sapiens, UniProt Q13627); settings: DYRK1A; 1000 nM
kinases (468) [25] = target: kinases (468) (Homo sapiens, UniProt Q96D53); settings: ADCK4; 1000 nM
kinases (468) [26] = target: kinases (468) (Homo sapiens, UniProt P00533, G719C); settings: EGFR(G719C); 1000 nM
kinases (468) [27] = target: kinases (468) (Homo sapiens, UniProt Q99759); settings: MAP3K3; 1000 nM
kinases (468) [28] = target: kinases (468) (Homo sapiens, UniProt Q96Q40); settings: PFTAIRE2 (CDK15); 1000 nM
kinases (468) [29] = target: kinases (468) (Homo sapiens, UniProt O43683); settings: BUB1; 1000 nM
kinases (468) [30] = target: kinases (468) (Homo sapiens, UniProt P36897); settings: kinase TGFBR1 (Entrez TGFBR1); compound concentration 1000 nM
kinases (468) [31] = target: kinases (468) (Homo sapiens, UniProt P00519); settings: 1000 nM
kinases (468) [32] = target: kinases (468) (Homo sapiens, UniProt P00519, E255K); settings: ABL1(E255K)-phosphorylated; 1000 nM
kinases (468) [33] = target: kinases (468) (Homo sapiens, UniProt Q13546); settings: kinase RIPK1 (Entrez RIPK1); compound concentration 1000 nM
kinases (468) [34] = target: kinases (468) (Homo sapiens, UniProt P78362); settings: kinase SRPK2 (Entrez SRPK2); compound concentration 1000 nM

kinases (468) (Homo sapiens, UniProt P11802), sequence (P11802 whole entry): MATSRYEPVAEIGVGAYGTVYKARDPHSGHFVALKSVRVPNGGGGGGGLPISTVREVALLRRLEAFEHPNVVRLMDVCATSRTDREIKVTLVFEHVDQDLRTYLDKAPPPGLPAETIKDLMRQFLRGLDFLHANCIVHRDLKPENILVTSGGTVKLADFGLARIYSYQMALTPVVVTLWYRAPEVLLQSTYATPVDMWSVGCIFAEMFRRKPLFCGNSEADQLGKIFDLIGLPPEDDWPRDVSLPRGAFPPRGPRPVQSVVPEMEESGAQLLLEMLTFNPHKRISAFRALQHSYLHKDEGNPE
kinases (468) (Homo sapiens, UniProt P00519), sequence (P00519 whole entry): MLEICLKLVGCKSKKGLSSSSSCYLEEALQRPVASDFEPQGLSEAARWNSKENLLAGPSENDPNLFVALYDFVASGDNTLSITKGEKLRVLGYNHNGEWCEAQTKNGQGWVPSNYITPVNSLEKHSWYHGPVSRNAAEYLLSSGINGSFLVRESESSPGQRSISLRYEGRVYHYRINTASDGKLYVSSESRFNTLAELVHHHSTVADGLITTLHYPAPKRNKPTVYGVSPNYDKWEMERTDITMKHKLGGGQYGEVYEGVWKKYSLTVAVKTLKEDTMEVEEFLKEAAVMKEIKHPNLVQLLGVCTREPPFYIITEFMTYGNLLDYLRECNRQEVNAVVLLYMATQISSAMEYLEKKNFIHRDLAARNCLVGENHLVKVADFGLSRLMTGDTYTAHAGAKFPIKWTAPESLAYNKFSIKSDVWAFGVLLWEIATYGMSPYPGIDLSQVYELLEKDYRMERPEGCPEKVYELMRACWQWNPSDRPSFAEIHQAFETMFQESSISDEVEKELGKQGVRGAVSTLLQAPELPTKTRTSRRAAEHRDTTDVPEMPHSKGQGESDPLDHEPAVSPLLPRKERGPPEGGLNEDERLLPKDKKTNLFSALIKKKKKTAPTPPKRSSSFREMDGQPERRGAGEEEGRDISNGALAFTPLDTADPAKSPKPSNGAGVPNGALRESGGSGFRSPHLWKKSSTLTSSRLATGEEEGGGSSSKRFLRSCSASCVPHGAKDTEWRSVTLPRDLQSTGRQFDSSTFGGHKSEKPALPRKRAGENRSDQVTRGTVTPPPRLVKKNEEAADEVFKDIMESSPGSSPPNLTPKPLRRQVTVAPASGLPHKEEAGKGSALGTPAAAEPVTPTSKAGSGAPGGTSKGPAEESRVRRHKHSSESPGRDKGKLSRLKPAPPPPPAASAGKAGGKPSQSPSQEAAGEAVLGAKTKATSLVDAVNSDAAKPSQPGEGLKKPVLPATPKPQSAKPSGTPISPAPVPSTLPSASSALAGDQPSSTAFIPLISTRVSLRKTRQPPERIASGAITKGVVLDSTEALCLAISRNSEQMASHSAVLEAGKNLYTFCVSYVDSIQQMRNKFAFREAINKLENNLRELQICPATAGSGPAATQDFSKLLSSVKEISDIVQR
kinases (468) (Homo sapiens, UniProt O43683), sequence (O43683 whole entry): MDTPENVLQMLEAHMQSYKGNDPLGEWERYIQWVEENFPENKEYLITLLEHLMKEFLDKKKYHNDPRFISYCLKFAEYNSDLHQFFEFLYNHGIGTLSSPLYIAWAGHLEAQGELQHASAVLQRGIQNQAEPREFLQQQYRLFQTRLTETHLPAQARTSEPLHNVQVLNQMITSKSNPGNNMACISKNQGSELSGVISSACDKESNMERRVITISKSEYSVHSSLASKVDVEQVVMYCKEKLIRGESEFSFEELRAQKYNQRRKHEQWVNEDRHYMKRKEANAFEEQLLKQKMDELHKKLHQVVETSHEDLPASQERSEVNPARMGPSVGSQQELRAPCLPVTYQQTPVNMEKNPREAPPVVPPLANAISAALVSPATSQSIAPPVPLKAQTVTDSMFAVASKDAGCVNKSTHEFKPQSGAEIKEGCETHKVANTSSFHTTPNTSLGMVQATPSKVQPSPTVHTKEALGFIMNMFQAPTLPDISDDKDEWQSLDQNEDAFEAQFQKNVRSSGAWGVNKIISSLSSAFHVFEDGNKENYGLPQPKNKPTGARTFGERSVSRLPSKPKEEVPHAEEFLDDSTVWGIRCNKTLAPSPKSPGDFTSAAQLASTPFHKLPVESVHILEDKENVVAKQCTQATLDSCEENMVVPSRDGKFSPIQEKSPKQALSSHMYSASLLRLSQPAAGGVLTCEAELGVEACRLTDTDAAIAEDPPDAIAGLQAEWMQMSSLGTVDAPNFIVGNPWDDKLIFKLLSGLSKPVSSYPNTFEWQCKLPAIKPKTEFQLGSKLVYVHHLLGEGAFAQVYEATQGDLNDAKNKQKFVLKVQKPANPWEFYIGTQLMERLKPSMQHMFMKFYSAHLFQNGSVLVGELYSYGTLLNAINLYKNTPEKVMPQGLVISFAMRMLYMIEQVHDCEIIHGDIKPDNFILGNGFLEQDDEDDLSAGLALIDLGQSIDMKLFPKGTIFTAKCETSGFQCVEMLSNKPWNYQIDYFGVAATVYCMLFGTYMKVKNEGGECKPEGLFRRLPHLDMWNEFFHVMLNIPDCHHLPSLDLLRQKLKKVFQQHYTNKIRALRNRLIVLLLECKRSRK
kinases (468) (Homo sapiens, UniProt P42685), sequence (P42685 whole entry): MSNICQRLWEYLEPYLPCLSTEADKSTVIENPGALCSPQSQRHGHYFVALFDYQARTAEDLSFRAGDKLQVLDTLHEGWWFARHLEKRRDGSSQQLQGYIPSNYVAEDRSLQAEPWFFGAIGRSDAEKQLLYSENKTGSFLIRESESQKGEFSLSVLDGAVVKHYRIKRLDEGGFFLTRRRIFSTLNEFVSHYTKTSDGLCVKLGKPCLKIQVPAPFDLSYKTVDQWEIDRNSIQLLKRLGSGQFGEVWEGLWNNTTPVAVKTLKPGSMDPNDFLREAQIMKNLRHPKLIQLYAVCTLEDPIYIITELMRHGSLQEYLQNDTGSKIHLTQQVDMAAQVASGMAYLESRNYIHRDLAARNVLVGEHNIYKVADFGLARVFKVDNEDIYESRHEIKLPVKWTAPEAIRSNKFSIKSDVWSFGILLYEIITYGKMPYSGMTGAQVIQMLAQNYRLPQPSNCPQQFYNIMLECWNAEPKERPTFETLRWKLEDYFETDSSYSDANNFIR
kinases (468) (Homo sapiens, UniProt Q9Y2K2), sequence (Q9Y2K2 whole entry): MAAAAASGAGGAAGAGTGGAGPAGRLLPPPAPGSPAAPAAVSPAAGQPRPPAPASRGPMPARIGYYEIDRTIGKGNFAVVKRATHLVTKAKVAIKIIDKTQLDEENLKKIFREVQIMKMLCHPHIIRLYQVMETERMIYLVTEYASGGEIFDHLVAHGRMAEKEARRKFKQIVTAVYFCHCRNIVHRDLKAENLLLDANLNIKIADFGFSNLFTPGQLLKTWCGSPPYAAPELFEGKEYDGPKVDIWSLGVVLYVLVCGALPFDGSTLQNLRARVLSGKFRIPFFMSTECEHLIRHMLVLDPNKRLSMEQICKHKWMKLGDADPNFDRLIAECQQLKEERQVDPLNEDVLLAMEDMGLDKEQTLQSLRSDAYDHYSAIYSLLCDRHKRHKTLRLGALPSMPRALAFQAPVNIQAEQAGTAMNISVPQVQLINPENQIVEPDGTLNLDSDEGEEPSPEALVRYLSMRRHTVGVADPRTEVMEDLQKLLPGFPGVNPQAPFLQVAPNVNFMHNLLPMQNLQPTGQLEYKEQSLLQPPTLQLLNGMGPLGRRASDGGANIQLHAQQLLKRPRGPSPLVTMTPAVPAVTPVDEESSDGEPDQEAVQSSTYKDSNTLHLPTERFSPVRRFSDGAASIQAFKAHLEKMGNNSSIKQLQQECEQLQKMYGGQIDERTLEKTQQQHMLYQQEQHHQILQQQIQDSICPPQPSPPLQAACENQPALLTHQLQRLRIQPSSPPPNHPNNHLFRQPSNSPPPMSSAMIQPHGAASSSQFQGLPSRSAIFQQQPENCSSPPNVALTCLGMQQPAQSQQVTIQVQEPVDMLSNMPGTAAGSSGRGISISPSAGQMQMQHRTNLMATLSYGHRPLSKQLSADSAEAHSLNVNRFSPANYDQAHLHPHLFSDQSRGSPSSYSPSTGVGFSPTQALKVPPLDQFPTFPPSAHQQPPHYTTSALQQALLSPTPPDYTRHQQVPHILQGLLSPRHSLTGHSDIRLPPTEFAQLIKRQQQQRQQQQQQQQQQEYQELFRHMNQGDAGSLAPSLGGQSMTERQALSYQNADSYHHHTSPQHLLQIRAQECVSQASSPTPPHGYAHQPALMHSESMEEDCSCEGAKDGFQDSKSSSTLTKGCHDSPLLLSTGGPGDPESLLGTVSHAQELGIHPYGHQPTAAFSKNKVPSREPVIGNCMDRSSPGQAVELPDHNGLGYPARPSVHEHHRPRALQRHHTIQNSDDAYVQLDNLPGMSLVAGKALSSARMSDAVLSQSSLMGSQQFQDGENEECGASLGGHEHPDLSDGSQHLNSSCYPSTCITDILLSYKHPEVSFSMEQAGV
kinases (468) (Homo sapiens, UniProt P09769), sequence (P09769 whole entry): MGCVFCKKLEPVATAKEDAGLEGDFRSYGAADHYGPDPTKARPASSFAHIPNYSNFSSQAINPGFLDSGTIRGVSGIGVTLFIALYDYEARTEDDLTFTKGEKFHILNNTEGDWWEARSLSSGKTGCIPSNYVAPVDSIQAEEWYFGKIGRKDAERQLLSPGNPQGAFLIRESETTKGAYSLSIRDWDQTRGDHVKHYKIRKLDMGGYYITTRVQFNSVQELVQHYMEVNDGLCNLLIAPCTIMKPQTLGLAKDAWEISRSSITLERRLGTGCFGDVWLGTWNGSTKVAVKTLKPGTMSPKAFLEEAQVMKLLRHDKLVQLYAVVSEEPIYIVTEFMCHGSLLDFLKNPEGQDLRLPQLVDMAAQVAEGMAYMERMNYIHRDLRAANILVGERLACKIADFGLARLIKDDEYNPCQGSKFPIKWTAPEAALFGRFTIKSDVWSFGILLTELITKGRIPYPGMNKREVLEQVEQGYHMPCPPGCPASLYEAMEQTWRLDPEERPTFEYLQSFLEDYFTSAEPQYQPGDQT
kinases (468) (Homo sapiens, UniProt P00519, E255K), sequence (P00519 whole entry E255K): as the sequence (P00519 whole entry) above, with E255K counted along it

C[C@H]1C[C@@H](O)CN(c2ncc(Cl)c(Nc3ccc4c(c3)c3c(c(=O)n4C)OCC(F)(F)[C@H](C4CC4)N3)n2)C1 [CCT373566_9A]
Percent Control (kinases (468) [1]): 100%
Percent Control (kinases (468) [2]): 82%
Percent Control (kinases (468) [3]): 93%
Percent Control (kinases (468) [4]): 100%
Percent Control (kinases (468) [5]): 89%
Percent Control (kinases (468) [6]): 100%
Percent Control (kinases (468) [7]): 100%
Percent Control (kinases (468) [8]): 76%
Percent Control (kinases (468) [9]): 100%
Percent Control (kinases (468) [10]): 99%
Percent Control (kinases (468) [11]): 98%
Percent Control (kinases (468) [12]): 97%
Percent Control (kinases (468) [13]): 100%
Percent Control (kinases (468) [14]): 93%
Percent Control (kinases (468) [15]): 97%
Percent Control (kinases (468) [16]): 100%
Percent Control (kinases (468) [17]): 90%
Percent Control (kinases (468) [18]): 100%
Percent Control (kinases (468) [19]): 91%
Percent Control (kinases (468) [20]; CDK4-cyclinD1): 94%
Percent Control (kinases (468) [20]; CDK4-cyclinD3): 95%
Percent Control (kinases (468) [20]; CDK4): 100%
Percent Control (kinases (468) [21]): 99%
Percent Control (kinases (468) [22]): 96%
Percent Control (kinases (468) [23]): 99%
Percent Control (kinases (468) [24]): 95%
Percent Control (kinases (468) [25]): 93%
Percent Control (kinases (468) [26]): 94%
Percent Control (kinases (468) [27]): 100%
Percent Control (kinases (468) [28]): 98%
Percent Control (kinases (468) [29]): 94%
Percent Control (kinases (468) [30]): 89%
Percent Control (kinases (468) [31]; ABL1-nonphosphorylated): 92%
Percent Control (kinases (468) [31]; ABL1-phosphorylated): 99%
Percent Control (kinases (468) [32]): 99%
Percent Control (kinases (468) [33]): 100%
Percent Control (kinases (468) [34]): 100%
